Results from ChEMBL document CHEMBL1150735, “Phytochemical and pharmacological investigation of the cardioactive constituents of the leaf of Dysoxylum lenticellare” (J Nat Prod, 1987).

Experiments:
[1] = Solubility in water; assay type: physicochemical; conditions: buffer
[2] = Cardiovascular activity in spontaneously beating rat right atria assessed as change in rate of contraction at 80 uM by microdynameter relative to control; assay type: functional; conditions: Right cardiac atrium
[3] = Cardiovascular activity in spontaneously beating rat right atria assessed as change in amplitude of contraction at 80 uM by microdynameter relative to control; assay type: functional; conditions: Right cardiac atrium

solubility [1]	SMILES	Activity [2]	Activity [3]
Insoluble	COc1cc2c(cc1OC)-c1cc3c(cc1CCCN(C)CC2)OCO3 [DYSAZECINE]	–	–
–	COc1ccc(CC[C@@H]2c3cc(OC)c(OC)cc3CCN2C)cc1OC	-6.7%	16.3%
–	CO[C@H]1CC=C2CCN3CCC(O)c4cc5c(cc4[C@]23C1)OCO5 (stereo partly drawn)	-6%	11.5%
Insoluble	C=C1C[C@]23CC[C@@H]4C(C)(C)CCC[C@@]4(C)[C@@H]2CC[C@H]1C3 [PHYLLOCLADENE]	–	–
–	COc1cc2c(cc1OC)[C@@H](CCc1ccc3c(c1)OCO3)N(C)CC2	-6.4%	11.8%
